According to US20130065227A1, “METHODS OF INCREASING MACROPINOCYTOSIS IN CANCER CELLS” (priority 2010, published 2013):

Tests used:
DU145 = test: Stimulation of macropinocytosis (dextran uptake); assay type: cell-based
Description: (Panel A) DU145 cells were treated with 10 μM tAS1411 or 10 μM tCRO or no oligonucleotide in complete DMEM medium at 37° C. for the time indicated. After treatment, cell medium was changed for fresh complete medium containing 0.2 mg/ml dextran-10K labeled with Alexa Fluor 488, and cells were incubated for 30 min at 37° C. After incubation, cells were harvested and analyzed by flow cytometry to determine dextran uptake. (Panel B) The same experiment was performed using Hs27 cells. (Panel C) DU145 cells were treated with 10 μM tAS1411 or 10 μM tCRO or no oligonucleotide in complete DMEM medium at 37° C. for 48 h. After treatment, cell medium was changed for fresh complete medium containing 0.2 mg/ml dextran-10K tagged with Alexa Fluor 488, and cells were incubated for 30 min at 37° C. Then, cells were washed with cold PBS, added PBS containing 5 μg/ml PI and incubated on ice for 5 min. After washing with cold PBS, cells were fixed and the distribution of macropinocytic marker was visualized by confocal microscopy. The nucleus was stained with DAPI (blue). Scale bars, 10 μm. All experiments have been repeated at least three times. Data are mean of three independent samples; bars, SE; *(p<0.05).
FIG. 6 are graphs showing that nucleolin regulates AS1411-induced stimulation of macropinocytosis. DU145 cells were untreated (no transfection) or transfected, without siRNA (mock), or with 30 nM of one of three different nucleolin siRNAs (NCL1, NCL2, NCL3) or a control siRNA (scramble). 48 h after transfection, cells were incubated with 10 μM tAS1411, 10 μM tCRO, or no oligonucleotide in complete DMEM medium at 37° C. for 24 h. (Panel A) After treatment, cell medium was changed for fresh complete medium containing 0.2 mg/ml dextran-10K labeled with Alexa Fluor 488 (green) and incubated for 30 min at 37° C. (Panel B) After treatment, some cells were washed, fresh complete medium containing 10 μM FL-AS1411 added and incubated for 2 h at 37° C. After incubation, cells were harvested and analyzed by flow cytometry. Mean fluorescence was normalized to “not transfected” control (Panel A) or to no pre-treatment control (Panel B). All experiments have been repeated at least three times. Data are the mean of three independent samples; bars, SE; *(p<0.05).
FIG. 11 is a graph showing a comparison between AS1411 and tAS1411 in the ability to stimulate macropinocytosis. DU145 cells were plated 18 hr before treatment with different concentrations (0, 5, 10, or 15 μM) of AS1411, tAS1411 or tCRO in complete DMEM medium at 37° C. for 48 h. After treatment, cell medium was changed for fresh complete medium containing 0.2 mg/ml dextran-10K labeled with Alexa Fluor 488, and cells were incubated for 30 min at 37° C. After incubation, cells were incubated on ice with […] PI in PBS, harvested, fixed and immediately analyzed by flow cytometry.
To analyze uptake of the oligodeoxynucleotides or dextran-10K (macropinocytic marker) by flow cytometry, 2×10^5 cells in fresh supplemented culture medium (2.5 ml) were plated into 6-well plates for 18 h. After complete adhesion, the cells were incubated with 5′-FAM tagged oligodeoxynucleotides or Alexa Fluor 488 tagged dextran-10K and incubated as indicated in the Description of the Drawings. Cells were washed once with ice-cold PBS, incubated with 1 μg/ml 7-amino-actinomycin D (7-AAD) for 5 min on ice or 1 μg/ml propidium iodide (PI), and washed twice with ice-cold PBS. Cells were then treated with 0.01% trypsin/0.5 mM EDTA (300 μl) for 3 min prior addition 3 ml supplemented culture medium. The cells were then centrifuged and resuspended in 0.5 ml of 1% paraformaldehyde for analysis by flow cytometry using a FACScalibur cytometer (BD Biosciences, Mountain View, Calif.).
AS1411 causes a change in cancer cell morphology that is characterized by vacuolization, irregular nuclei, and swollen cells (Xu et al., 2001, J. Biol. Chem., 276:43221-30). […]

Hs27 cells = test: Uptake of fluorophore-labeled oligonucleotides by flow cytometry; assay type: cell-based, human; conditions: 10 μM, 2 h
Description: FIG. 1 are graphs showing that AS1411 cell internalization is an active process. Cells were plated 18 h before uptake analysis. After incubation as described, cells were washed with ice-cold PBS, incubated with 1 μg/ml 7-AAD, harvested and resuspended in 1% paraformaldehyde containing 2 μg/ml actinomycin D, then analyzed by flow cytometry. (Panel A) DU145 cells were incubated at 37° C. with fresh complete DMEM medium containing 10 μM FL-AS1411 (black line) or 10 μM FL-CRO (gray line) for the time indicated. (Panel B) DU145 cells were incubated for 2 h at 37° C. in complete or serum-free DMEM medium containing 10 μM FL-AS1411, or 10 μM FL-CRO, or no oligonucleotide. (Panel C) Various cell lines were incubated with 10 μM FL-AS1411 (black outline histogram), 10 μM FL-CRO (gray outline histogram) or without DNA (solid gray histogram) at 37° C. or 4° C. for 2 h. All experiments were repeated at least three times. Data are mean of three independent samples; bars, SE; *(p<0.05).
FIG. 2 are graphs showing that AS1411 is internalized by different endocytic mechanisms in DU145 cancer cells and in non-malignant Hs27 cells. DU145 or Hs27 cells were plated 18 h before uptake analysis. Cells were pre-treated as described with inhibitor (gray histogram) or the corresponding vehicle control (black histogram) before addition of 10 μM FL-AS1411 and incubation at 37° C. for 2 h. After incubation, cells were harvested and analyzed by flow cytometry. Pre-treatment conditions were at 37° C. with: (Panel A) 5 μM Cytochalasin D for 30 min; (Panel B) 80 μM Dynasore for 30 min; or (Panel C) 3 mM amiloride for 1 h. All experiments were repeated at least three times and representative data are shown. Solid gray histograms represent background autofluorescence of unstained cells.
FIG. 9 are graphs showing the effects of inhibitors on various endocytic pathways. DU145 or Hs27 cells were plated 18 hr before uptake analysis. (Panel A) DU145 cells were pre-treated with dynamin inhibitor, […] Dynasore (black histogram) or DMSO (gray histogram) for 30 min at 37° C. After pre-treatment, cells were treated with […] transferrin conjugated with Alexa Fluor 488 for 30 min at 37° C. (Panel B) DU145 and Hs27 cells were pre-treated with 3 mM amiloride (black histogram) or vehicle (serum-free medium, gray histogram) for 1 h at 37° C. After pre-treatment, FL-CRO was added at a concentration of 10 μM and incubated at 37° C. for 2 h. After incubation, cells were harvested and analyzed by FACS. Gray solid histogram represents unstained cells.
To analyze uptake of the oligodeoxynucleotides or dextran-10K (macropinocytic marker) by flow cytometry, 2×10^5 cells in fresh supplemented culture medium (2.5 ml) were plated into 6-well plates for 18 h. […]

Substance: 5′-d(GGTGGTGGTGGTTGTGGTGGTGGTGG) [AS1411]
- stimulation of macropinocytosis compared with tAS1411 (DU145; 0, 5, 10, or 15 μM for 48 h): same response as tAS1411
- dextran uptake after treatment for shorter times (DU145; 1 h, 2 h, and 4 h): No changes in dextran uptake
- Stimulate MP? (DU145; DU145, Cancer, prostate): Yes
- uptake in Hs27 cells compared with cancer cells (Hs27 cells): higher uptake of AS1411 than any of the cancer cells analyzed
